Read-outs that look alike come from different tables or passages of the source.
How the values were obtained:
[1] = OS2 (OPTISAFE2), OPTISAFE formulation with antioxidants; settings: for OS2 Cons: majority prediction of the triplicate assays; for OS2 R1 / 0S2 R1: repeat 1, with antioxidants; for OS2 R1 / OS2 R3 / 0S2 R1: predicted GHS class; for OS2 R3: repeat 3, with antioxidants
[2] = pH 6.36
rabbit eye = settings: cited from earlier work
[3] = no antioxidants, predicted GHS class, cited from earlier work
[4] = Table 7B, based on the Draize data
[5] = Table 7B, consensus of past application domain study
[6] = Table 7A, based on the Draize data
[7] = Table 7A, consensus of past transferability study

Which results are given for CC(C)(O)CCC(C)(C)O?
OS2 Cons ([1]; Table 7B): 1; OS2 R1 ([1]; Table 7B): 2; OS2 R3 ([1]; Table 7B): 1

Which results are given for O=C(Cl)c1c(Cl)cccc1Cl [2,6-Dichlorobenzoyl chloride]?
OS2 Cons [2]: 1; OS2 R1 [2]: 1; OS2 R3 [2]: 1; In vivo GHS (rabbit eye; [4]): 2A (2A (reversal by 7 days)); OS Cons [3, 5]: 1

For Nc1ncccc1O [2-Amino-3-pyridinol], which “In vivo GHS” value (rabbit eye; [4]) is on record?
Its value is 2A (2A (reversal by 7 days)).

What about the “OS Cons” value [3, 5] of the same compound?
Its value is “CNM”.

Which “0S2 R1” value [2] does the source give for CCCC(C)CO (stereo not drawn) [2-Methyl-1-pentanol] here?
Its value is 2.

And the “OS2 Cons” value [2]?
The value was 2.

What about the “OS2 R3” value [2] of the same compound?
The value was 2.

And the “In vivo GHS” value (rabbit eye; [6])?
Its value is 2B (2B (reversal by 14 days)).

Which “OS2 Cons” value ([1]; Table 7A) does the source give for O=C(O)CCSSCCC(=O)O [3,3-Dithiodipropionic acid] here?
The value was 1.

And the “0S2 R1” value ([1]; Table 7A)?
The value was 1.

What about the “OS2 R3” value ([1]; Table 7A) of the same compound?
Its value is 1.

For O=C=Nc1ccc(Cl)c(Cl)c1 [3,4-Dichlorophenyl isocyanate], which “OS2 Cons” value ([1]; Table 7A) is on record?
Its value is 1.

And the “0S2 R1” value ([1]; Table 7A)?
The value was 1.

What about the “OS2 R3” value ([1]; Table 7A) of the same compound?
The value was 1.

And the “In vivo GHS” value (rabbit eye; [6])?
Its value is 1 (1 (no reversal by 21 days)).

What about the “OS Cons” value [3, 7] of the same compound?
The value was 1.

With N#CCCCl [3-Chloropropionitrile] as the compound, how does the “In vivo GHS” value (rabbit eye; [4]) read?
The value was 2B (2B (reversal by 14 days)).

For OCc1cccc(Oc2ccccc2)c1 [3-Phenoxybenzyl alcohol], which “OS2 Cons” value [2] is on record?
The value was 2.

What about the “OS2 R1” value [2] of the same compound?
The value was 2.

What about the “OS2 R3” value [2] of the same compound?
The value was 2.

And the “OS Cons” value [3, 5]?
Its value is 2.

With Cc1ncnc2nc[nH]c12 [6-Methyl purine] as the compound, how does the “OS2 Cons” value ([1]; Table 7B) read?
Its value is 2/1.

And the “OS2 R1” value ([1]; Table 7B)?
Its value is 2/1.

What about the “OS2 R3” value ([1]; Table 7B) of the same compound?
The value was 1.

And the “In vivo GHS” value (rabbit eye; [4])?
Its value is 2B (2B (reversal by 14 days)).

What does the source list for CC(C)=O [Acetone]?
OS2 Cons ([1]; Table 7B): 2; OS2 R1 ([1]; Table 7B): 2; OS2 R3 ([1]; Table 7B): 2; In vivo GHS (rabbit eye; [4]): 2A (2A (reversal by 7 days)); OS Cons [3, 5]: 2

For C=CCO [Allyl alcohol], which “OS2 Cons” value ([1]; Table 7B) is on record?
Its value is 1.

What about the “OS2 R1” value ([1]; Table 7B) of the same compound?
Its value is 1.

And the “OS2 R3” value ([1]; Table 7B)?
The value was 1.

What about the “In vivo GHS” value (rabbit eye; [4]) of the same compound?
Its value is 2A (2A (reversal by 7 days)).

What about the “OS Cons” value [3, 5] of the same compound?
The value was 1.

Which “OS2 Cons” value [2] does the source give for CCCCC(CC)COC(=O)CC(C(=O)OCC(CC)CCCC)S(=O)(=O)[O-].[Na+] (stereo not drawn) [Butanedioic acid, sulfo-, 1,4-bis(2-ethylhexyl) ester, sodium salt] here?
Its value is 2.

And the “OS2 R1” value [2]?
Its value is 2.

What about the “OS2 R3” value [2] of the same compound?
Its value is 2.

And the “In vivo GHS” value (rabbit eye; [4])?
The value was 1 (1 (no reversal by 21 days)).

What about the “OS Cons” value [3, 5] of the same compound?
Its value is 2.

Which “0S2 R1” value [2] does the source give for C=C1C2CCC(C2)C1(C)C (stereo not drawn) [Camphene] here?
Its value is 2.

And the “OS2 Cons” value [2]?
Its value is 2.

What about the “OS2 R3” value [2] of the same compound?
The value was 2.

Which “in vivo GHS” value (rabbit eye; Table 3, eye irritation class) does the source give for OC1CCCCC1 [Cyclohexanol] here?
The value was 1 (1 (no reversal by 21 days)).

What about the GHS (rabbit eye; Table 4) of the same compound?
The GHS was “Cat. 1”.

And the “In vivo GHS” value (rabbit eye; [4])?
Its value is 1 (1 (no reversal by 21 days)).

Which results are given for OC1CCCC1 [Cyclopentanol]?
OS2 Cons [2]: 1; OS2 R1 [2]: 1; OS2 R3 [2]: 1; In vivo GHS (rabbit eye; [4]): 2A (2A (reversal by 7 days)); OS Cons [3, 5]: 1

Which “OS2 Cons” value ([1]; Table 7A) does the source give for O=P(O)(OCc1ccccc1)OCc1ccccc1 [Dibenzyl phosphate] here?
The value was 1.

What about the “0S2 R1” value ([1]; Table 7A) of the same compound?
Its value is 1.

And the “OS2 R3” value ([1]; Table 7A)?
The value was 1.

Which “known ocular irritancy (FIG. 4 legend)” value (rabbit eye; rabbit, in vivo) does the source give for CCCCCCCCOCCCCCCCC [Dioctyl ether] here?
The value was “Nonirritants”.

Which “OS2 Cons” value ([1]; Table 7B) does the source give for CCOC(=O)C(C)C(C)=O (stereo not drawn) [Ethyl-2-methyl acetoacetate] here?
Its value is 1.

What about the “OS2 R1” value ([1]; Table 7B) of the same compound?
The value was 1.

And the “OS2 R3” value ([1]; Table 7B)?
Its value is 1.

And the “In vivo GHS” value (rabbit eye; [4])?
The value was 2B (2B (reversal by 14 days)).

What about the “OS Cons” value [3, 5] of the same compound?
Its value is 1.

For c1c[nH]cn1 [Imidazole], which “In vivo GHS” value (rabbit eye; rabbit, in vivo) is on record?
Its value is 1 (key: NC (not classified as an irritant); 2A (reversal by 7 days); 2B (reversal by 14 days); 1 (no reversal by 21 days)).

Which “0S2 R1” value [2] does the source give for CC(C)CO [Isobutanol] here?
Its value is 1.

What about the “OS2 Cons” value [2] of the same compound?
Its value is 1.

What about the “OS2 R3” value [2] of the same compound?
Its value is 1.

And the “In vivo GHS” value (rabbit eye; [6])?
The value was 2A (2A (reversal by 7 days)).

What about the “OS Cons” value [3, 7] of the same compound?
Its value is 1.

Source: patent US12115147B2, “Formulations and methods related to eye irritation” (Lebrun Labs LLC, priority 2020, dated 2024)
